Reference: patent US11433090B2, “mTOR-inhibitor-containing medicine for treating or preventing ophthalmic symptoms, disorders, or diseases, and application thereof” (The Doshisha, priority 2017, dated 2022)

Test system: caspase 3/7
Experiment: Caspase-Glo 3/7 Assay in iFECD stimulated with TGF-β2
Format: cell-based, human
Details: TGF-β2 10 ng/ml, Dunnett-t test, n=5
Protocol: The medium was removed from a culture dish in which iFECDs were being cultured, and the cells were supplemented with 1×PBS (−) that was preheated to 37° C., and were washed. This was repeated twice. The cells were supplemented again with 1×PBS (−) and incubated for 3 minutes at 37° C. (5% CO2). After removing the PBS (−), the cells were supplemented with 0.05% Trypsin-EDTA (Nacalai Tesque, 32778-34) and incubated for 5 minutes at 37° C. (5% CO2). The cells were then suspended in a medium, and collected by centrifugation at 1500 rpm for 3 minutes. DMEM (Nacalai Tesque, 08456-36)+10% FBS (Biowest, S1820-500)+1% P/S (Nacalai Tesque, 26252-94) was used as the medium.
Corneal endothelial cells from immortalized FECD patients (lot: iFECD3-5) were seeded on a 96-well plate at a ratio of 4×10^3 cells per well and cultured for 24 hours at 37° C. (5% CO2) (medium: DMEM+10% FBS+1% P/S). After 24 hours, the medium was removed. Each mTOR inhibitor was added to culture the cells for 24 hours (medium: DMEM+2% FBS+1% P/S). After 24 hours, the medium was removed. Media containing 10 ng/ml of Recombinant Human TGF-β2 (Wako, 200-19911) and each mTOR inhibitor were added to culture the cells for 24 hours (medium: DMEM+2% FBS+1% P/S). After 24 hours, the cell morphology and apoptosis were observed under a phase difference microscope.
After observation, measurement of caspase 3/7 activity by Caspase-Glo® 3/7 Assay was carried out with the following procedure.
The medium was discarded to achieve 50 μl per well. 50 μl/well of Caspase Glo® 3/7 Assay Reagent (mixture of Caspase-Glo® 3/7 Assay Buffer and Caspase-Glo® 3/7 Assay Substrate) (Promega, G8091) solution was added so as to achieve 1:1 with the medium. The operations hereafter were carried out while being shaded. A shaker was used to mix the content well for two minutes at about 120 minutes^−1 to then be left for 40 minutes at room temperature. After being left, 80 μl was moved to Assay plate (Corning, 3912, Assay plate 96 well, white polystyrene) and […] was measured using GloMax-Multi Detection System (Promega, E7051).
The following mTOR inhibitors were used in this Example. • Rapamycin (Wako, #53123-88-9) • Everolimus (Cayman Chemical, #11597) • Temsirolimus (Tocris Bioscience, #5264) • PI-103 (Cayman Chemical, #10009209) • CC-223 (Cayman Chemical, #19917) • INK128 (Cayman Chemical, #11811) • AZD8055 (Cayman Chemical, #16978) • KU 0063794 (Tocris Bioscience, #3725)

| SMILES | activity of caspase 3/7 compared to control (0.01 μM) | activity of caspase 3/7 compared to control (0.1 μM) | activity of caspase 3/7 compared to control (1 μM) | activity of caspase 3/7 compared to control (0.001 μM) | activity of caspase 3/7 compared to control (0.00001 μM) | activity of caspase 3/7 compared to control (0.0001 μM) | activity of caspase 3/7 compared to control (0.000001 μM) | activity of caspase 3/7 compared to control (10 μM) |
| --- | --- | --- | --- | --- | --- | --- | --- | --- |
| COc1ccc(-c2ccc3c(N4CCOC[C@@H]4C)nc(N4CCOC[C@@H]4C)nc3n2)cc1CO [AZD8055] | significantly suppressed | significantly suppressed | significantly suppressed |  |  |  |  |  |
| CO[C@H]1CC[C@H](N2C(=O)CNc3ncc(-c4ccc(C(C)(C)O)nc4)nc32)CC1 [CC-223] | significantly suppressed | significantly suppressed | significantly suppressed | significantly suppressed |  |  |  |  |
| CC(C)n1nc(-c2ccc3oc(N)nc3c2)c2c(N)ncnc21 [INK128] | significantly suppressed | significantly suppressed | significantly suppressed | significantly suppressed |  |  |  |  |
| COc1ccc(-c2ccc3c(N4CCOCC4)nc(N4C[C@@H](C)O[C@@H](C)C4)nc3n2)cc1CO [KU 0063794] | significant difference was not found | significantly suppressed | significantly suppressed | significant difference was not found |  |  |  |  |
| Oc1cccc(-c2nc(N3CCOCC3)c3oc4ncccc4c3n2)c1 [PI-103] | significantly suppressed | significantly suppressed | significant difference was not found | significantly suppressed |  |  |  |  |
| CO[C@H]1C[C@@H]2CC[C@@H](C)[C@@](O)(O2)C(=O)C(=O)N2CCCC[C@H]2C(=O)O[C@H]([C@H](C)C[C@@H]2CC[C@@H](OCCO)[C@H](OC)C2)CC(=O)[C@H](C)/C=C(\C)[C@@H](O)[C@@H](OC)C(=O)[C@H](C)C[C@H](C)/C=C/C=C/C=C/1C [everolimus, Everolimus] | significantly suppressed | significantly suppressed |  | significantly suppressed | significantly suppresses | significantly suppressed |  |  |
| CO[C@H]1C[C@@H]2CC[C@@H](C)[C@@](O)(O2)C(=O)C(=O)N2CCCC[C@H]2C(=O)O[C@H]([C@H](C)C[C@@H]2CC[C@@H](OC(=O)C(C)(CO)CO)[C@H](OC)C2)CC(=O)[C@H](C)/C=C(\C)[C@@H](O)[C@@H](OC)C(=O)[C@H](C)C[C@H](C)/C=C/C=C/C=C/1C [temsirolimus, Temsirolimus] | significantly suppressed | significantly suppressed | significantly suppressed | significantly suppressed | significantly suppressed | significantly suppressed | significant difference was not found | significantly suppressed |
